Where a chain is given by its changes, count along the chain named.
Key:
OATP1B1*5 = target: T1, OATP1B1*5 (Homo sapiens, UniProt Q9Y6L6, V174A); experiment: OATP1B1 single nucleotide polymorphism panel uptake assay, OATP1B1*5 HEK-293 cells
T1 sequence (Q9Y6L6 1-691 V174A): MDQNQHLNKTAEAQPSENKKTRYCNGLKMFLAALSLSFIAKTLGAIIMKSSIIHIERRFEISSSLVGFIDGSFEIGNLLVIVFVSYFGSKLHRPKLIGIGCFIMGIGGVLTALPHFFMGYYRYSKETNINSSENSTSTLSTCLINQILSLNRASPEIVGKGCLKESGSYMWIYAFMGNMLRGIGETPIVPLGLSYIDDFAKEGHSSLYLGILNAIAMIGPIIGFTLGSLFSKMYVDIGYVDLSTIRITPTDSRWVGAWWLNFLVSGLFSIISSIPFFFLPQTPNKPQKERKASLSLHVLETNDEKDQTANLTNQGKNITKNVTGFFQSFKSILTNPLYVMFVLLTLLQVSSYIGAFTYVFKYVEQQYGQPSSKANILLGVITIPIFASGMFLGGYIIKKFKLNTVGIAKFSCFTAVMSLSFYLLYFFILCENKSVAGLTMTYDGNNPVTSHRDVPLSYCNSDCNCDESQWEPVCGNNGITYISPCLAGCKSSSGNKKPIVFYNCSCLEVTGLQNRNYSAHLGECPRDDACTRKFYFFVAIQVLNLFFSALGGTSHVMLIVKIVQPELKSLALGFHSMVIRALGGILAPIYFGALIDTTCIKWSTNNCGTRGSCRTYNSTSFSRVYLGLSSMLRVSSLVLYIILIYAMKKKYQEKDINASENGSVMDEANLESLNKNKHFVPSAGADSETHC

OATP1B1*1a = target: T2, OATP1B1*1a (Homo sapiens, UniProt Q9Y6L6); details: read-out: Km, SLC Transporter Cells; substrate 0.25 to 40 μM, incubation 1 min
T2 sequence (Q9Y6L6 1-691): T1 sequence (Q9Y6L6 1-691 V174A) with A174V

[1] = target: T3, Organic Anion-Transporting Polypeptide 1B1 (Homo sapiens, UniProt Q9Y6L6); experiment: Suspension assay, centrifugation method, Corning TransportoCells OATP1B1*1a; assay type: in vitro ADME; details: 5× substrate solution containing 25 μM, 10 minutes at 37° C., 600 k cells/well
T3 construct: host or cells: HEK293 cells, gene delivered by electroporation
T3 sequence (Q9Y6L6 1-691): T1 sequence (Q9Y6L6 1-691 V174A) with A174V
From the text: In this experiment, a suspension assay for characterizing the activity of a drug transporter protein in cryopreserved, Corning® TransportoCells™ was developed. More specifically, the use of a centrifugation method versus a vacuum manifold for separating unreacted substrate in characterizing the activity of Organic Anion-Transporting Polypeptide 1B1 was investigated. Corning® TransportoCells™ transiently transfected with the gene OATP1B1*1a were obtained from Corning Life Sciences (Cat. No. 354859). In the Corning® TransportoCells™, the gene OATP1B1*1a was delivered into HEK293 cells via electroporation and the HEK293 cells were recovered and cryopreserved 1 hour post-electroporation. In order to obtain suitable expression of the Organic Anion-Transporting Polypeptide 1B1 encoded by OATP1B1*1a, the Corning® TransportoCells™ were thawed, cultured, and harvested.
The cells were cultured in T-175 Vented-Cap Culture Flasks with Poly-D-Lysine (hereinafter, “PDL”; available from Corning Life Sciences, Cat. No. 354539) with plating medium for 48 hours at 37° C. and 8% CO2. The plating medium is detailed in Table 16. After 24 hours, sodium butyrate (obtained from Sigma) was added to the cells to reach final 5 mM. After 48 hours, the cells were rinsed twice with Phosphate-Buffered Saline (hereinafter, “PBS”, obtained from Corning).
The cells were then harvested with 0.05% Trypsin (obtained from Sigma) and washed once with Hank's Balanced Salt Solution (hereinafter, “HBSS”) buffer (with Ca^2+ and Mg^2+, obtained from Corning). Then, the cells were resuspended in HBSS (obtained from Corning) to a final cell density of 3×10^6 cells/ml. Two suspension assay experiments were then performed to characterize the activity of Organic Anion-Transporting Polypeptide 1B1 in the Corning® TransportoCells™.
In a first suspension assay experiment, use of a centrifugation method was investigated to separate excess substrate and cells. Referencing FIG. 20, in the first suspension assay experiment, the resuspended Corning® TransportoCells™ were aliquotted (200 μl per well at a density of 600 k cells/well) into either a Corning® 96 Well Clear Round Bottom TC-Treated Microplate (available from Corning Life Sciences, Cat. No. 3799) or a Corning® 96 Well Clear V-Bottom TC-Treated Microplate (available from Corning Life Sciences, Cat. No. 3894). […] The cells were then incubated for 10 minutes at 37° C. After the incubation time, the reaction was stopped by adding ice cold HBSS buffer (50 μl) to the cells and placing the microplates on ice. Then, the microplates were centrifuged at 3000 g for 1 minute at 4° C. […] The cell lysis was then subjected to the appropriate protein analysis and/or fluorescence analysis to characterize the activity of Organic Anion-Transporting Polypeptide 1B1.

Compound	Km (dog Oatp1b4) [µM]	uptake of substrate (in words) (dog Oatp1b4; HEK-293 cells overexpressing the transporter)	uptake activity / transport compared to OATP1B1*1a cells (in words) (OATP1B1*5)	Km (OATP1B1*1a) [µM]	Uptake Activity OATP1B1 ([1]; Round Bottom) [pmol/mg/min]	Uptake Ratio ([1]; Round Bottom)	Uptake Activity OATP1B1 ([1]; V-Bottom) [pmol/mg/min]	Uptake Ratio ([1]; V-Bottom)
C[C@]12CC[C@@H]3c4ccc(O)cc4CC[C@H]3[C@@H]1CC[C@@H]2O[C@@H]1O[C@H](C(=O)O)[C@@H](O)[C@H](O)[C@H]1O [E17βG]	12.2 ± 0.6	significant uptake	Significantly impaired transport	6.2	–	–	–	–
fluorescein methotrexate [FMTX]	–	–	Significantly impaired transport	–	0.38	10.9	1.04	102.3
